Here are results for six molecules from patent publication US12195748B2, “Delivery across cell plasma membranes” (Avectas Limited, priority 2014, dated 2025).

The subject of assay [1] is A549 cells. Kind of assay: Spray-mediated delivery of payloads to A549 cells (fluorescence microscopy, flow cytometry). It is filed as cell-based, human. (Flow cytometry measures light scatter and fluorescence of single cells or particles in a stream.)
Procedure: Each well of the plate was treated as follows: cell culture medium was removed from the well using a micropipette. Optionally, the well was rinsed twice with 250 μL phosphate buffered saline (PBS) using a micropipette. 20 μL of Solution A containing molecules to be delivered was delivered to the cells using the atomizer. The plate was incubated at room temperature for a period of 30 seconds to 2 minutes depending on the size of the molecule to be delivered, following which 250 μL of Solution B was added to the well using a micropipette. The plate was then incubated at room temperature for 30 seconds, at which time Solution B was removed from the well using a micropipette. 500 μL of culture medium was added to the well using a micropipette. The cells were then returned to a humidified atmosphere with 5% CO^2 at 37° C.
Fluorescence Microscopy. Fluorescein isothiocyanate (FITC)- and DyLight Phosphoramidite (DY547)-labelled molecules were used in accordance with the manufacturer's instructions. Labelled molecules to be delivered to the cells were added to Solution A and delivered to cells as described above herein. Following delivery, the plate was placed onto the stage of a fluorescent microscope (Olympus CKX 41) and the cells were viewed using filters to visualize fluorescence. Photomicrographs were acquired.
Flow Cytometry. […] The cell suspension was loaded into a flow cytometer [Accuri Flow Cytometyer, BD Biosciences] and the fluorescence was analyzed according to manufacturer's instruction. […]
The next assay deals with Jurkat cells. Kind of assay: Spray delivery into Jurkat suspension cells. Format: cell-based. The conditions noted are these: spray after removal of supernatant.
The subject of assay [2] is A549 cells. Kind of assay: Incubation of A549 cells in S Buffer (Medepalli conditions). It is filed as cell-based, human. The settings on record: 5 min at 4° C. From the text: A vector-free delivery method was developed based on reversible permeabilisation that would facilitate delivery of payloads into cells in a manner that would retain cell viability and payload functionality. As other groups have done, the following hypothesis was utilized: firstly, permeabilisation could be induced by chemical modification of the cell membrane; secondly, delivery could be enhanced via osmotic pressure brought about by using a hypotonic delivery solution whereby influx of water into the permeabilised cells facilitated influx of a payload and thirdly, cell survival could be enhanced if the hypotonic delivery solution was also buffered and physiological. Based on initial observations, further hypotheses were developed and refined as described later here. For chemical permeabilisation, the most common permeabilising agents are detergents which interact with certain components in cell membranes to create holes (Hapala, I., Crit Rev. Biotech. 1997; 17(2): 105-22). […] (Medepalli K. et al., Nanotechnology 2013; 24(20)). In some examples, potassium acetate is replaced with ammonium acetate in the “S” buffer. They also stated that delivery could be enhanced by adding saponin to the solution. […] Organic solvents such as alcohols can permeabilise cells by dissolving lipid from the cell membrane. […]

In another assay the test system is CHO cells. The experiment in a line: Spray delivery of labelled proteins into CHO cells. The settings on record: for delivery of labelled protein into cells: FITC or Alexa-488 label. Format: cell-based, Chinese hamster. From the text: A notable application of delivery technology is the intracellular delivery of proteins. Proteins are a very diverse group in terms of their size, shape and chemistry and few methods are currently available for efficient delivery of these molecules. A broad range of proteins of increasing sizes from 18.3 kDa to 443 kDa were labeled with either FITC or Alexa-488 and their delivery by spraying was examined. […] A general trend towards declining delivery efficiencies with increasing size of protein (FIG. 44) was observed.

For assay [3], the system named is A549 cells. The experiment in a line: Micropipette-mediated delivery of payloads to A549 cells (uptake). It is filed as cell-based, human. The settings on record: 24-well plates. On the procedure:
FIG. 19 is a graph illustrating Micropipette-mediated delivery of payloads in either 200 μl or 20 μl delivery solution to A549 cells in 24-well plates. Uptake efficiency was measured by flow cytometry (5% m bar) and toxicity was measured by lactate dehydrogenase (LDH) release compared to lysed cells positive control.
Cells were seeded into 24-well plates on Day 0 such that they were 80-90% confluent on Day 1 when delivery was carried out. […] Cells were incubated for 2 min at room temperature (RT) to facilitate uptake. To further facilitate uptake and prevent cell dehydration, 200 μl 0.5×-PBS was then added and cells were incubated for a further 30 sec. This solution was then removed and 400 μl culture medium was added. The cells were then analyzed by fluorescence microscopy.

The next assay concerns cells. Kind of assay: Delivery of molecules to cells, spray apparatus versus micropipette (Examples 2-12). It is filed as cell-based. From the text:
Delivery of Molecules. An intranasal mucosal atomization device commercially available from LMA Teleflex of NC, USA under catalogue number MAD300 and including an atomizer emitter was set up as follows: the atomizer emitter was positioned 31 mm from the base of the 24-well plate and above the center point of each circular well of the plate. The atomizer emitter was adjusted to allow a pressure of 1.5 bar. A timer was utilized to dispense spray from the atomizer emitter for a period of 1 second. The atomizer emitter was primed by rinsing three times with Solution A containing molecules to be delivered.
Each well of the plate was treated as follows: cell culture medium was removed from the well using a micropipette. Optionally, the well was rinsed twice with 250 μL phosphate buffered saline (PBS) using a micropipette. 20 μL of Solution A containing molecules to be delivered was delivered to the cells using the atomizer. The plate was incubated at room temperature for a period of 30 seconds to 2 minutes depending on the size of the molecule to be delivered, following which 250 μL of Solution B was added to the well using a micropipette. The plate was then incubated at room temperature for 30 seconds, at which time Solution B was removed from the well using a micropipette. 500 μL of culture medium was added to the well using a micropipette. […]
Fluorescence Microscopy. […] Following delivery, the plate was placed onto the stage of a fluorescent microscope (Olympus CKX 41) and the cells were viewed using filters to visualize fluorescence. […]
Flow Cytometry. […] The cell suspension was loaded into a flow cytometer [Accuri Flow Cytometyer, BD Biosciences] and the fluorescence was analyzed according to manufacturer's instruction.
Cell Viability. Following delivery, cell viability was assessed using the CellTiter 96® AQueous One Solution Cell Proliferation Assay (MTS) (Promega) according to the manufacturer's instructions. […] 100 μL of solution was removed from the well and placed into a 96-well plate and absorbance was read at 450 nm using a GloMax 96 Microplate luminometer [Promega].

Where [4] appears, read: DAPI, phallotoxin and MitoTracker Red together.

“Also recorded” adds a separate entry of the source.

Procedure for Jurkat cells: In this example, the delivery method across cell types was evaluated. […] The cell suspension was placed into a porous cell culture plate insert and a brief gentle vacuum of approximately −0.5 to −0.68 bar was applied for 20-45 sec to remove supernatant before the cells were sprayed (FIG. 41A and FIG. 42).

`N=C(N)c1ccc(-c2cc3ccc(C(=N)N)cc3[nH]2)cc1` [DAPI, 4′,6-diamidino-2-phenylindole]: the co-delivery into cells entry in the assay on A549 cells [1] (10-kDa dextran-Alexa488 and DAPI together) was “successfully co-delivered”; in the assay on A549 cells [1] (setting [4]) it was “successfully co-delivered”. In the assay with Jurkat cells, the “delivery to suspension cells” value is recorded as “successfully delivered”.
In the case of dextran, in the assay on A549 cells [2], the uptake result was “did not observe uptake”.
“ovalbumin: protein labelled with FITC and delivered into CHO cells”: the “delivery of labelled protein into cells” value in the assay with CHO cells is recorded as “successfully delivered”. Also, the “detection of delivered protein with anti-ovalbumin antibody” value with CHO cells (immunofluorescence) is recorded as “detected by immunofluorescence”.
Consider `CC[N+](C)(CC)CCC[n+]1c(-c2ccccc2)c2cc(N)ccc2c2ccc(N)cc21.[I-].[I-]` [PI, propidium iodide], for which the “uptake viewed by fluorescent microscopy” value with A549 cells [3] (20 μL delivery solution) is on record as “apparent at the edge of the well but not in the center; also recorded: apparent in some areas of the well but not in others”; in the assay on A549 cells [3] (200 μL delivery solution), “most cells immediately stained positive”; in the assay with A549 cells [3] (200 μL delivery solution, listed as Propidium iodide), “uptake was visible throughout the cell population”. In addition, the “delivery rate (percent of cells showing successful delivery), spray compared to micropipette” value with cells (Example 3, 150 μM, 20 or 40% ethanol) is “increases the delivery rate”. Further, the “delivery in viable cells” value with cells (Example 3, micropipette, 40% (v/v) ethanol) is “no delivery of molecules was detected in viable cells”. Besides, the “simultaneous delivery of two molecules into the cell” value in the assay on cells (Example 4, spray, 25% ethanol, same matrix) is “results in delivery of the molecule into the cell”.
For the molecule `ClCc1ccc(C2=c3cc4c5c(c3Oc3c2cc2c6c3CCCN6CCC2)CCC[N+]=5CCC4)cc1.[Cl-]` [MitoTracker Red], the co-delivery into cells entry in the assay on A549 cells [1] (setting [4]) was “successfully co-delivered”. Moreover, the “delivery to suspension cells” value in the assay with Jurkat cells is given as “successfully delivered”.

B1: catalase: protein labelled with FITC and delivered into CHO cells (protein, UniProt P00432 2-527, looked up)
Catalase: ADNRDPASDQMKHWKEQRAAQKPDVLTTGGGNPVGDKLNSLTVGPRGPLLVQDVVFTDEMAHFDRERIPERVVHAKGAGAFGYFEVTHDITRYSKAKVFEHIGKRTPIAVRFSTVAGESGSADTVRDPRGFAVKFYTEDGNWDLVGNNTPIFFIRDALLFPSFIHSQKRNPQTHLKDPDMVWDFWSLRPESLHQVSFLFSDRGIPDGHRHMNGYGSHTFKLVNANGEAVYCKFHYKTDQGIKNLSVEDAARLAHEDPDYGLRDLFNAIATGNYPSWTLYIQVMTFSEAEIFPFNPFDLTKVWPHGDYPLIPVGKLVLNRNPVNYFAEVEQLAFDPSNMPPGIEPSPDKMLQGRLFAYPDTHRHRLGPNYLQIPVNCPYRARVANYQRDGPMCMMDNQGGAPNYYPNSFSAPEHQPSALEHRTHFSGDVQRFNSANDDNVTQVRTFYLKVLNEEQRKRLCENIAGHLKDAQLFIQKKAVKNFSDVHPEYGSRIQALLDKYNEEKPKNAVHTYVQHGSHLSAREKANL
modifications: FITC label
notes: protein labelled with FITC and delivered into CHO cells
On to B1, for which the “delivery of labelled protein into cells” value in the assay with CHO cells is given as “successfully delivered”.
